Tested on: Akute Kolitis
Assay: Acetic acid-induced acute colitis in rats, morphological evaluation of the mucosa by image analysis
Format: in vivo, Ratten
Conditions: rat, 3 x 200 mg/kg p.o.; for Anteil von Mukosabereichen Schädigungsstufe 0 (ohne Befund) an der Gesamtfläche des untersuchten Darmbereichs / Anteil von Mukosabereichen Schädigungsstufe 1 (Schwellung des Gewebes mit leichter Rötung) an der Gesamtfläche des untersuchten Darmbereichs / Anteil von Mukosabereichen Schädigungsstufe 2 (starke Rötung des Gewebes mit Einblutungen oder ulcerierenden Nekrosen) an der Gesamtfläche des untersuchten Darmbereichs: rectum and parts of distal colon, 3 days after induction with 5% acetic acid, mean ± spread
[1] = change versus control in words, p<0,01

Method: Beispiel 1 und Probucol wurden in einer Dosierung von 200 mg/kg/d 3 mal oral verabreicht. Die Behandlung wurde einen Tag vor Entzündungsinduktion mit 5% Essigsäure begonnen. […] Das Ausmaß einer entzündlichen Reaktion im Darm wird durch Begutachtung des Mukosa-Zustandes und Klassifizierung nach festgelegten Parametern bestimmt.
Akute Kolitis wurde bei 24 h nüchternen Ratten durch rektale Instillation von 5% Essigsäure (1,5ml/Tier) über eine 8 cm lange Sonde induziert. Die morphologische Auswertung des Mukosazustandes aus dem Rektum und Teilen des distalen Kolons (ca. 8 cm) erfolgte am 3. Tag nach Entzündungsinduktion, nachdem die Tiere getötet worden waren. Beispiel 1 und Probucol wurden in einer Dosierung von 200 mg/kg/d 3 mal p.o. (2,5 ml/kg) verabreicht. Die erste Gabe erfolgte 24 h vor Essigsäure-Applikation. Kontrolltieren wurde das Substanzlösungsmittel (20% DMSO in Öl) verabreicht.
Die morphologische Auswertung erfolgte an einem computergeschützten Bildanalyse-System. Es wurde der Anteil von entzündetem Gewebe an der Gesamtdarmoberfläche bestimmt. Folgende Schädigungsstufen wurden unterschieden: • - Stufe 0 : ohne Befund • - Stufe 1 : Schwellung des Gewebes mit leichter Rötung • - Stufe 2 : starke Rötung des Gewebes mit Einblutungen oder ulcerierenden Nekrosen

Structure (SMILES)	Anteil von Mukosabereichen Schädigungsstufe 0 (ohne Befund) an der Gesamtfläche des untersuchten Darmbereichs	Anteil von Mukosabereichen Schädigungsstufe 1 (Schwellung des Gewebes mit leichter Rötung) an der Gesamtfläche des untersuchten Darmbereichs	Anteil von Mukosabereichen Schädigungsstufe 2 (starke Rötung des Gewebes mit Einblutungen oder ulcerierenden Nekrosen) an der Gesamtfläche des untersuchten Darmbereichs	nur noch geschwollene Gewebebereiche (Schädigungsstufe 1) [1]	stark geschädigte Darmanteile (Schädigungsstufe 2) [1]	größere, morphologisch normale Gewebebereiche (Schädigungsstufe 0) (result in words, p<0,01 versus control)	Einfluß auf die durch Essigsäure-Applikation hervorgerufenen Mukosaschädigungen (result in words)
CC(C)(C)c1cc(CCNC(=O)CCc2cc(C(C)(C)C)c(O)c(C(C)(C)C)c2)cc(C(C)(C)C)c1O [Beispiel 1]	17,20 ± 8,93 %	66,96 ± 8,31 %	15,75 ± 6,24 %	Zunahme	deutlicher Abnahme	nachweisbar	
CC(C)(Sc1cc(C(C)(C)C)c(O)c(C(C)(C)C)c1)Sc1cc(C(C)(C)C)c(O)c(C(C)(C)C)c1 [Probucol, reference compound]	0,12 ± 0,09%	52,78 ± 9,36%	47,19 ± 9,36%				keinen Einfluß

Reference: patent EP0525814A1, “Use of di-tertbutylhydroxyphenyl derivatives for the therapy of inflammatory conditions of the gastrointestinal tract” (BOEHRINGER MANNHEIM GMBH, priority 1991, dated 1993)
